Read-outs that look alike come from different tables or passages of the source.
Tests used:
[1] = test system: ventral prostate and levator ani of immature castrated male Sprague Dawley rats; test: Ventral Prostate and Levator ani Weight in vivo Assay (agonist activity); design: key to % Prostate Stimulation / % levator ani Stimulation: level 1 agonist active if it produced greater than or equal to 30% stimulation of levator ani or ventral prostate at 30 mg/kg; level 2 agonist active if it produced greater than or equal to 5% but less than 30% stimulation of levator ani or ventral prostate at 30 mg/kg; listed herein as “inactive” as they did not meet the specified criteria defined above; conditions: once daily for five days, oral, vehicle = 0%, testosterone propionate = 100%, criteria at 30 mg/kg; for change in vivo at 30 mg/kg: Rattus norvegicus, 120 h
Description: Immature (approximately 50 g) castrated male Sprague Dawley rats (Charles River) were treated once daily for five days with test compound ([…], in 30% cyclodextrin or 0.5% methylcellulose vehicle), or with testosterone propionate (administered subcutaneously by injection at the nape of the neck at 5 mg/kg, in a volume of 0.1 mL in sesame oil), or with vehicle (1 mL of 30% cyclodextrin or 0.5% methylcellulose, given orally). On the sixth day, the rats were euthanized by asphyxiation in carbon dioxide. Ventral prostates and levator ani. muscle were removed and their wet weights determined.
Test compound activity was determined as the percent stimulation of tissue weight, with the vehicle-treated control group set to zero percent and the testosterone alone-treated control group set to 100%.

[2] = test system: ventral prostate and seminal vesicle of immature castrated male Sprague Dawley rats; test: Ventral Prostate and Seminal Vesicle Weight in vivo Assay (antagonist activity, with testosterone propionate); design: key to Inhibition of prostate (non-weight prostate weight, mg) / Inhibition of seminal vesicle (non-weight seminal vesicle weight, mg): level 1 agonist active if it produced greater than or equal to 30% stimulation of levator ani or ventral prostate at 30 mg/kg; level 2 agonist active if it produced greater than or equal to 5% but less than 30% stimulation of levator ani or ventral prostate at 30 mg/kg; listed herein as “inactive” as they did not meet the specified criteria defined above; conditions: test compound oral plus testosterone propionate 2 mg/kg s.c., five days, criteria at 30 mg/kg; for inhibition in vivo at 30 mg/kg: Rattus norvegicus, 120 h
Description: Immature (approximately 50 g) castrated male Sprague Dawley rats (Charles River) were treated once daily for five days with test compound ([…], in 30% cyclodextrin or 0.5% methylcellulose vehicle) and with testosterone propionate (given subcutaneously by injection at the nape of the neck at 2 mg/kg, in a volume of 0.1 mL in sesame oil). On the sixth day, the rats were euthanized by asphyxiation in carbon dioxide. Ventral prosatates and seminal vesicles were removed and their wet weights determined. Test compound activity was determined as the percent inhibition of testosterone-enhanced tissue weights, with a vehicle-treated control group set to zero percent and a testosterone alone-treated control group set to 100%.

[3] = levator ani wet weight, read-out: % levator ani Stimulation
[4] = ventral prostate wet weight, read-out: % Prostate Stimulation
[5] = seminal vesicle wet weight, read-out: Inhibition of seminal vesicle (non-weight seminal vesicle weight, mg)
[6] = ventral prostate wet weight, read-out: Inhibition of prostate (non-weight prostate weight, mg)

| SMILES | change in vivo at 30 mg/kg [1, 3] [%] | change in vivo at 30 mg/kg [1, 4] [%] | inhibition in vivo at 30 mg/kg [2, 5] [%] | inhibition in vivo at 30 mg/kg [2, 6] [%] | Inhibition of seminal vesicle (non-weight seminal vesicle weight, mg) ([2]; seminal vesicle wet weight) | % levator ani Stimulation ([1]; levator ani wet weight) | % Prostate Stimulation ([1]; ventral prostate wet weight) | Inhibition of prostate (non-weight prostate weight, mg) ([2]; ventral prostate wet weight) |
| --- | --- | --- | --- | --- | --- | --- | --- | --- |
| CC12CC(C(F)(F)F)=NN1C(N)=N/C2=N\c1ccc(C#N)c(C(F)(F)F)c1 (stereo not shown) [Compound 1, 4-(6-Amino-3a-methyl-2-trifluoromethyl-3,3a-dihydro-imidazo[1,5-b]pyrazol-4-ylideneamino)-2-trifluoromethyl-benzonitrile] | ≥ 30 | ≥ 30 | ≥ 30 | 5 to 30 | – | – | – | – |
| C[C@]12CC(C(F)(F)F)=NN1C(N)=N/C2=N\c1ccc(C#N)c(C(F)(F)F)c1 [Compound 2, 4-(6-Amino-3aR-methyl-2-trifluoromethyl-3,3a-dihydro-imidazo[1,5-b]pyrazol-4-ylideneamino)-2-trifluoromethyl-benzonitrile] | ≥ 30 | ≥ 30 | – | 5 to 30 | inactive | – | – | – |
| C[C@@]12CC(C(F)(F)F)=NN1C(N)=N/C2=N\c1ccc(C#N)c(C(F)(F)F)c1 [Compound 3, 4-(6-Amino-3aS-methyl-2-trifluoromethyl-3,3a-dihydro-imidazo[1,5-b]pyrazol-4-ylideneamino)-2-trifluoromethyl-benzonitrile] | ≥ 30 | 5 to 30 | 5 to 30 | ≥ 30 | – | – | – | – |
| CC12CC(C(F)(F)F)=NN1C(N)=N/C2=N\c1ccc(Cl)c(Cl)c1 (stereo not shown) [Compound 4, 4-(3,4-Dichloro-phenylimino)-3a-methyl-2-trifluoromethyl-3a,4-dihydro-3H-imidazo[1,5-b]pyrazol-6-ylamine] | – | – | 5 to 30 | 5 to 30 | – | inactive | inactive | – |
| CC12CC(C(F)(F)F)=NN1C(N)=N/C2=N\c1ccc([N+](=O)[O-])c(C(F)(F)F)c1 (stereo not shown) [Compound 5, 3a-Methyl-4-(4-nitro-3-trifluoromethyl-phenylimino)-2-trifluoromethyl-3a,4-dihydro-3H-imidazo[1,5-b]pyrazol-6-ylamine] | – | – | ≥ 30 | – | – | inactive | inactive | inactive |
| CC12CC=NN1C(N)=N/C2=N\c1ccc(C#N)c(C(F)(F)F)c1 (stereo not shown) [Compound 6, 4-(6-Amino-3a-methyl-3,3a-dihydro-imidazo[1,5-b]pyrazol-4-ylideneamino)-2-trifluoromethyl-benzonitrile] | – | – | 5 to 30 | – | – | inactive | inactive | inactive |
| CCOC(=O)C1=NN2C(N)=N/C(=N\c3ccc(C#N)c(C(F)(F)F)c3)C2(C)C1 (stereo not shown) [Compound 7, 6-Amino-4-(4-cyano-3-trifluoromethyl-phenylimino)-3a-methyl-3a,4-dihydro-3H-imidazo[1,5-b]pyrazole-2-carboxylic acid ethyl ester] | 5 to 30 | 5 to 30 | 5 to 30 | – | – | – | – | inactive |
| CCC12CC(C(F)(F)F)=NN1C(N)=N/C2=N\c1ccc(C#N)c(C(F)(F)F)c1 (stereo not shown) [Compound 8, 4-(6-Amino-3a-ethyl-2-trifluoromethyl-3,3a-dihydro-imidazo[1,5-b]pyrazol-4-ylideneamino)-2-trifluoromethyl-benzonitrile] | 5 to 30 | 5 to 30 | 5 to 30 | – | – | – | – | inactive |
| CC12CC(c3c(F)c(F)c(F)c(F)c3F)=NN1C(N)=N/C2=N\c1ccc(C#N)c(C(F)(F)F)c1 (stereo not shown) [Compound 11, 4-(6-Amino-3a-methyl-2-pentafluorophenyl-3,3a-dihydro-imidazo[1,5-b]pyrazol-4-ylideneamino)-2-trifluoromethyl-benzonitrile] | 5 to 30 | 5 to 30 | – | – | – | – | – | – |
